Measurements: PubChem BioAssay (NCI)
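Cultured in 96-well plates, cells were exposed to test compound for 48 hours across five concentrations. GI50 = concentration required for 50% inhibition of growth. TGI is the concentration that stops growth completely.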

How the values were obtained:
Assay in all cases: NCI-60 cell line screen, 48 h
U251 CNS = test system: U251 CNS
HT29 colon = test system: HT29 colon
HCC-2998 colon = test system: HCC-2998 colon
RXF 393 renal = test system: RXF 393 renal
MOLT-4 leukemia = test system: MOLT-4 leukemia
PC-3 prostate = test system: PC-3 prostate
SF-295 CNS = test system: SF-295 CNS
SF-539 CNS = test system: SF-539 CNS
M14 melanoma = test system: M14 melanoma
NCI-H522 lung = test system: NCI-H522 lung

NCCOCCOCCNc1nc(Cc2ccccc2)nc(NCCCN2CCCC2=O)n1
GI50 (U251 CNS): > 100 µM | TGI (U251 CNS): > 100 µM | GI50 (HT29 colon): > 100 µM | TGI (HT29 colon): > 100 µM | GI50 (HCC-2998 colon): > 100 µM | TGI (HCC-2998 colon): > 100 µM | GI50 (RXF 393 renal): > 100 µM | TGI (RXF 393 renal): > 100 µM | GI50 (MOLT-4 leukemia): > 100 µM | TGI (MOLT-4 leukemia): > 100 µM | GI50 (PC-3 prostate): > 100 µM | TGI (PC-3 prostate): > 100 µM | GI50 (SF-295 CNS): > 100 µM | TGI (SF-295 CNS): > 100 µM | GI50 (SF-539 CNS): > 100 µM | TGI (SF-539 CNS): > 100 µM | GI50 (M14 melanoma): > 100 µM | TGI (M14 melanoma): > 100 µM

CCCCCCCCCCC(C(=O)O)C1(C(=O)O)CCC(=O)O1 (stereo not given)
TGI (U251 CNS): > 100 µM | TGI (HT29 colon): > 100 µM | TGI (HCC-2998 colon): > 100 µM | TGI (RXF 393 renal): > 100 µM | TGI (NCI-H522 lung): > 100 µM | TGI (MOLT-4 leukemia): > 100 µM | TGI (PC-3 prostate): > 100 µM | TGI (SF-295 CNS): > 100 µM | TGI (M14 melanoma): > 100 µM

CCCNC1=C(C(=O)OCC)C(=O)CO1
TGI (U251 CNS): > 100 µM | TGI (HT29 colon): > 100 µM | TGI (HCC-2998 colon): > 100 µM | TGI (RXF 393 renal): > 100 µM | TGI (MOLT-4 leukemia): > 100 µM | TGI (SF-295 CNS): > 100 µM | TGI (SF-539 CNS): > 100 µM | TGI (M14 melanoma): > 100 µM

COc1cc(/C=C/c2cc(O)c3cc(C(C)=O)c(=O)oc3c2)cc2c1O[C@]1(C)CC[C@@H](O)C(C)(C)[C@H]1C2
TGI (U251 CNS): > 81.4 µM | GI50 (HT29 colon): > 24.9 µM | TGI (HT29 colon): > 62.2 µM | GI50 (HCC-2998 colon): > 28.2 µM | TGI (HCC-2998 colon): > 48.7 µM | GI50 (NCI-H522 lung): > 25.9 µM | TGI (NCI-H522 lung): > 53 µM | TGI (MOLT-4 leukemia): > 26.4 µM | TGI (PC-3 prostate): > 36 µM | TGI (SF-539 CNS): > 23.6 µM | TGI (M14 melanoma): > 20.2 µM

N#C/C(=C\c1ccc(O)c(O)c1)C(N)=S
TGI (U251 CNS): > 100 µM | TGI (HT29 colon): > 100 µM | TGI (HCC-2998 colon): > 100 µM | TGI (RXF 393 renal): > 89.7 µM | TGI (NCI-H522 lung): 75.9 µM | TGI (MOLT-4 leukemia): > 100 µM | TGI (SF-295 CNS): > 100 µM | TGI (SF-539 CNS): > 100 µM | TGI (M14 melanoma): > 100 µM

CCCCCCCCCCCC(=O)OCC1OC(n2cc(F)c(=O)[nH]c2=O)C(NC(=O)OCc2ccccc2)C(OC(=O)CCCCCCCCCCC)C1O (stereo not given)
TGI (U251 CNS): > 100 µM | TGI (HT29 colon): > 100 µM | TGI (HCC-2998 colon): > 100 µM | TGI (RXF 393 renal): > 100 µM | TGI (NCI-H522 lung): > 100 µM | TGI (MOLT-4 leukemia): > 100 µM | TGI (SF-295 CNS): > 100 µM | TGI (SF-539 CNS): > 100 µM | TGI (M14 melanoma): > 100 µM

NC1C[C@H](n2cc(/C=C/Br)c(=O)[nH]c2=O)C[C@@H]1CO (stereo not given in full)
TGI (U251 CNS): > 100 µM | TGI (HT29 colon): > 100 µM | TGI (HCC-2998 colon): > 100 µM | TGI (RXF 393 renal): > 100 µM | TGI (NCI-H522 lung): > 100 µM | TGI (MOLT-4 leukemia): > 100 µM | TGI (SF-295 CNS): > 100 µM | TGI (SF-539 CNS): > 100 µM | TGI (M14 melanoma): > 100 µM

COc1ccc2c(c1)/C(=C\c1c(C)nc3sccn13)C(=O)N2
TGI (U251 CNS): > 100 µM | TGI (HT29 colon): > 100 µM | GI50 (HCC-2998 colon): 0.0392 µM | TGI (HCC-2998 colon): 8.21 µM | GI50 (RXF 393 renal): 0.722 µM | TGI (RXF 393 renal): > 90.4 µM | GI50 (NCI-H522 lung): < 0.01 µM | GI50 (MOLT-4 leukemia): < 0.0462 µM | GI50 (PC-3 prostate): 0.179 µM | TGI (PC-3 prostate): > 100 µM | GI50 (SF-295 CNS): < 0.0466 µM | GI50 (M14 melanoma): < 0.0495 µM | TGI (M14 melanoma): > 100 µM

Nc1ccn(CCNCCn2cnc3nc(N)[nH]c(=O)c32)c(=O)n1
TGI (U251 CNS): > 100 µM | TGI (HT29 colon): > 100 µM | TGI (HCC-2998 colon): > 100 µM | TGI (RXF 393 renal): > 100 µM | TGI (NCI-H522 lung): > 100 µM | TGI (SF-295 CNS): > 100 µM | TGI (SF-539 CNS): > 100 µM

CCN(CC)c1ccc(C(=O)c2ccccc2C(=O)O)c(O)c1
TGI (U251 CNS): > 100 µM | TGI (HT29 colon): > 100 µM | TGI (RXF 393 renal): > 100 µM | TGI (NCI-H522 lung): > 100 µM | TGI (MOLT-4 leukemia): > 100 µM | TGI (SF-295 CNS): > 100 µM | TGI (SF-539 CNS): > 100 µM | TGI (M14 melanoma): > 100 µM

O=C(/C=C/c1ccccc1)c1cc(Br)ccc1O
TGI (U251 CNS): 29.9 µM | TGI (HT29 colon): 31 µM | TGI (HCC-2998 colon): 32.2 µM | TGI (RXF 393 renal): 37.4 µM | TGI (NCI-H522 lung): 28.4 µM | TGI (MOLT-4 leukemia): 36.3 µM | TGI (PC-3 prostate): 33.7 µM | TGI (SF-295 CNS): 31.5 µM | TGI (M14 melanoma): 52.9 µM
